Test results reported in patent US20170295783A1, “COMPOSITIONS AND METHODS TO SELECTIVELY CONTROL SPECIES” (STEPHEN F. AUSTIN STATE UNIVERSITY, priority 2014, published 2017).

How the values were obtained:
[1] = test system: human tumor cells or normal cells; conditions: Li, et al., 2013; cited from earlier work
T. sebifera seedlings = test: Droplet test and foliar spray of fractions on Chinese tallow seedlings; design: species or system Triadica sebifera; conditions: in vivo
From the text: The leaf surfaces of the experimental plants were checked daily for two weeks by a ×60 portable microscope linked to an iPhone™.

Giant Salvinia = test: Leaf-blade droplet bioassay on giant salvinia; type: in vivo, Salvinia molesta; conditions: for Activity against Giant Salvinia: 8 μL of 1% solution on lower leaf surface
Method: The three plants in the first container served as control without any treatment, three plants in the second container were treated with 1% DMSO, three plants in the third container were treated with 5% DMSO, three plants in the fourth container were treated with 0.5% Dyne-Amic®, and the plants in each of the other four containers were treated with each of the four testing isolates, respectively. For each of the three plant in the 0.5% Dyne-Amic® treatment, 8 μL of 0.5% Dyne-Amic® was applied on the lower surface of each of the two mature leaf blades close to the terminal bud by pipet and 8 μL of 0.5% Dyne-Amic® was applied on the upper surface (with trichomes) of each of the two other mature leaf blades close to the terminal bud by pipet. For all three plants in each of the DMSO or testing isolates treatment containers, 8 μL of each experimental solution was applied on the lower surface of each of the two mature leaf blades close to the terminal bud by pipet.

A. palmeri = test: Leaf droplet bioassay on A. palmeri seedlings; type: in vivo, Amaranthus palmeri; conditions: 10 μL 0.5% glyphosate
Method: Bioassays: The experimental plants were 3-week-old A. palmeri seedlings germinated from the seeds collected from the above described glyphosate-resistant plants. The seedlings were grown in pots with Miracle Grow Potting Mix soil in the greenhouse (30° C. during the day time and 20° C. at night). The intact seedling plants of 3-week old Q. texana and 2-month-old L. styraciflua grown in pots in greenhouse were also tested in this experiment. […] The leaf surfaces of the experimental plants were checked daily for two weeks by a ×60 portable microscope linked to an iPhone™.

Structure (SMILES)	cytotoxicity against human tumor cells or normal cells [1]	Activity against Giant Salvinia (Giant Salvinia)	leaf injury during the two weeks of observation (Giant Salvinia; 8 μL/leaf, 1% solution)	other results
CC(=O)/C=C/[C@H]1C(C)=C[C@H](O)CC1(C)C	did not show any cytotoxicity			
COc1c(OC)c(OC)c2oc(=O)ccc2c1OC [5,6,7,8-Tetramethoxycoumarin, 5,6,7,8-tetramethoxycoumarin]				endocidal activity in the droplet test (T. sebifera seedlings): showed endocidal activity
CC(=O)/C=C/C1=C(C)C[C@@H](O)CC1(C)C [compound 1, (+)-3-Hydroxy-β-ionone]	did not show any cytotoxicity	Potent activity		leaves dead by the end of experiment (of six) (Giant Salvinia; 8 μL/leaf, 1% solution): two leaves were dead; time to significant injury of the six treated leaf blades (Giant Salvinia; 8 μL/leaf, 1% solution, lower surface): ≤ 12 h; time to death of lower surface contact tissues (FIG. 1) (Giant Salvinia; applied on the lower surface of the leaf blade): ≤ 12 h
CC(=O)/C=C/[C@H]1C(C)=C[C@H](O)CC1(C)C [compound 2, (3R,6R,7E)-3-hydroxy-4,7-megastigmadien-9-one]		Weak activity	no or slight injury	
CC(=O)/C=C/[C@@]12O[C@]1(C)C[C@@H](O)CC2(C)C [compound 3, Annuionone D]	did not show any cytotoxicity	No activity	no or slight injury	
CC(=O)/C=C/[C@@]1(O)C(C)=CC(=O)CC1(C)C [compound 4, Dehydrovomifoliol]	did not show any cytotoxicity	No activity	no or slight injury	
O=C(O)CNCP(=O)(O)O [glyphosate]				leaf injury (A. palmeri): no injury
